This is an account of results in patent US12577226B2, “Compounds for treating Huntington's disease” (PTC THERAPEUTICS, INC., priority 2019, dated 2026).

One may read the IC50 as the concentration that gives 50% inhibition.

The subject of this assay is Endogenous Huntingtin Protein (capture with MW1 (expanded polyglutamine) or MAB2166 antibody). Briefly: Endogenous Huntingtin Protein Assay (ELISA-based Meso Scale Discovery electrochemiluminescence assay). The format is cell-based. The conditions noted are these: MSD electrochemiluminescence platform. Put shortly: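 MSD electrochemiluminescence sandwich immunoassay: plates coated with 1 μg/mL MW1 or MAB2166 capture antibody, samples incubated overnight at 4 °C. Detection with rabbit monoclonal #5656S then SULFO-TAG anti-rabbit (each 0.25 μg/mL, 1 h RT).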
For orientation: ELISA stands for enzyme-linked immunosorbent assay.

`C[C@@H]1CN(c2ccc(-c3ncc(/C=C/c4cnn(C)c4)cc3O)nn2)C[C@H](C)N1` [Compound 118, 2-{6-[(3R,5S)-3,5-dimethylpiperazin-1-yl]pyridazin-3-yl}-5-[(E)-2-(1-methyl-1H-pyrazol-4-yl)ethenyl]pyridin-3-ol and 2-{6-[(3S,5R)-3,5-dimethylpiperazin-1-yl]pyridazin-3-yl}-5-[(E)-2-(1-methyl-1H-pyrazol-4-yl)ethenyl]pyridin-3-ol] displayed an IC50 not above 100 nM. Take `Cn1cc2cc(-c3cnc(-c4ccc(N5CCN(C6CC6)CC5)nn4)c(O)c3)cc(F)c2n1` [Compound 100, 2-[6-(4-cyclopropylpiperazin-1-yl)pyridazin-3-yl]-5-(7-fluoro-2-methyl-2H-indazol-5-yl)pyridin-3-ol]: the half-inhibitory concentration (IC50) was in the range of 100 to 500 nM. For “6-[6-(6-{[(3R,4S)-3-fluoro-2,2,6,6-tetramethylpiperidin-4-yl]oxy}pyridazin-3-yl)-5-hydroxypyridin-3-yl]-2-methylimidazo[1,2-a]pyridine-8-carbonitrile and 6-[6-(6-{[(3S,4R)-3-fluoro-2,2,6,6-tetramethylpiperidin-4-yl]oxy}pyridazin-3-yl)-5-hydroxypyridin-3-yl]-2-methylimidazo[1,2-a]pyridine-8-carbonitrile [Compound 59]”, the IC50 was not above 100 nM. The compound `Cc1cn2cc(-c3cnc(-c4ccc(N5CCC6(CCN6)C5)nn4)c(O)c3)ccc2n1` (centres unmarked) [Compound 107, 2-[6-(1,6-diazaspiro[3.4]octan-6-yl)pyridazin-3-yl]-5-(2-methylimidazo[1,2-a]pyridin-6-yl)pyridin-3-ol] had an IC50 not above 100 nM. With `Cn1cc2cc(-c3cnc(-c4ccc(O[C@H]5CC(C)(C)NC(C)(C)[C@H]5F)nn4)c(O)c3)cc(F)c2n1` (single isomer, unassigned) [Compound 35, 5-(7-fluoro-2-methyl-2H-indazol-5-yl)-2-(6-{[(3R,4S)-3-fluoro-2,2,6,6-tetramethylpiperidin-4-yl]oxy}pyridazin-3-yl)pyridin-3-ol or 5-(7-fluoro-2-methyl-2H-indazol-5-yl)-2-(6-{[(3S,4R)-3-fluoro-2,2,6,6-tetramethylpiperidin-4-yl]oxy}pyridazin-3-yl)pyridin-3-ol] the figure was not above 100 nM.

The compound `Cc1cn2cc(-c3cnc(-c4cnc(N5CC[C@@H](NC(C)(C)C)C5)nn4)c(O)c3)cc(C#N)c2n1` [Compound 147, 6-(6-{3-[(3R)-3-(tert-butylamino)pyrrolidin-1-yl]-1,2,4-triazin-6-yl}-5-hydroxypyridin-3-yl)-2-methylimidazo[1,2-a]pyridine-8-carbonitrile] returned an IC50 of 100 to 500 nM. With `C[C@@H]1CN(c2ccc(-c3ncc(-c4cn[nH]c4)cc3O)nn2)C[C@H](C)N1` [Compound 86, 2-{6-[(3R,5S)-3,5-dimethylpiperazin-1-yl]pyridazin-3-yl}-5-(1H-pyrazol-4-yl)pyridin-3-ol and 2-{6-[(3S,5R)-3,5-dimethylpiperazin-1-yl]pyridazin-3-yl}-5-(1H-pyrazol-4-yl)pyridin-3-ol] the figure was 100 to 500 nM; with `C[C@@H]1CN(c2ccc(-c3ncc(-c4cc(C#N)c5nn(C)cc5c4)cc3O)nn2)C[C@H](C)N1` [Compound 78, 5-(6-{6-[(3R,5S)-3,5-dimethylpiperazin-1-yl]pyridazin-3-yl}-5-hydroxypyridin-3-yl)-2-methyl-2H-indazole-7-carbonitrile and 5-(6-{6-[(3S,5R)-3,5-dimethylpiperazin-1-yl]pyridazin-3-yl}-5-hydroxypyridin-3-yl)-2-methyl-2H-indazole-7-carbonitrile], not above 100 nM. `CCC1CN(c2ccc(-c3ncc(-c4cc(F)c5nn(C)cc5c4)cc3O)nn2)CCN1` (centres unmarked) [Compound 120, 2-[6-(3-ethylpiperazin-1-yl)pyridazin-3-yl]-5-(7-fluoro-2-methyl-2H-indazol-5-yl)pyridin-3-ol] registered an IC50 not above 100 nM.

On to `[2H]C([2H])([2H])n1cc(-c2cnc(-c3ccc(OC4CC(C)(C)NC(C)(C)C4)nn3)c(O)c2)cn1` [Compound 3, 5-[1-(^2H3)methyl-1H-pyrazol-4-yl]-2-{6-[(2,2,6,6-tetramethylpiperidin-4-yl)oxy]pyridazin-3-yl}pyridin-3-ol], for which the IC50 was not above 100 nM. Turning to `COc1cc(-c2cnc(-c3ccc(N4C[C@@H](C)N[C@@H](C)C4)nn3)c(O)c2)cc2cn(C)nc12` [Compound 87, 2-{6-[(3R,5S)-3,5-dimethylpiperazin-1-yl]pyridazin-3-yl}-5-(7-methoxy-2-methyl-2H-indazol-5-yl)pyridin-3-ol and 2-{6-[(3S,5R)-3,5-dimethylpiperazin-1-yl]pyridazin-3-yl}-5-(7-methoxy-2-methyl-2H-indazol-5-yl)pyridin-3-ol], the IC50 was not above 100 nM. `[2H]C([2H])([2H])n1cc(-c2cnc(-c3ccc(O[C@H]4C[C@H](C)NC5(CC5)C4)nn3)c(O)c2)cn1` [Compound 84, 2-(6-{[(5S,7S)-5-methyl-4-azaspiro[2.5]octan-7-yl]oxy}pyridazin-3-yl)-5-[1-(^2H3)methyl-1H-pyrazol-4-yl]pyridin-3-ol] displayed an IC50 of 500 to 1000 nM. With `CC1CN(c2ccc(-c3ncc(NCc4ccccn4)cc3O)nn2)CCN1` (centres unmarked) [Compound 109, 2-[6-(3-methylpiperazin-1-yl)pyridazin-3-yl]-5-{[(pyridin-2-yl)methyl]amino}pyridin-3-ol], the IC50 fell in the range of 500 to 1000 nM. The compound `Cn1cc2cc(-c3cnc(-c4cnc(N5CCN[C@@H](C6CC6)C5)nn4)c(O)c3)cc(F)c2n1` [Compound 158, 2-{3-[(3S)-3-cyclopropylpiperazin-1-yl]-1,2,4-triazin-6-yl}-5-(7-fluoro-2-methyl-2H-indazol-5-yl)pyridin-3-ol] registered an IC50 not above 100 nM.

`CC1(C)CC(Nc2cnc(-c3ncc(-n4nccn4)cc3O)nn2)CC(C)(C)N1` [Compound 163, 2-{6-[(2,2,6,6-tetramethylpiperidin-4-yl)amino]-1,2,4-triazin-3-yl}-5-(2H-1,2,3-triazol-2-yl)pyridin-3-ol] registered an IC50 not above 100 nM. `Cc1ncc(-c2cnc(-c3ccc(N4CC[C@@H](NC(C)(C)C)C4)nn3)c(O)c2)o1` [Compound 76, 2-{6-[(3R)-3-(tert-butylamino)pyrrolidin-1-yl]pyridazin-3-yl}-5-(2-methyl-1,3-oxazol-5-yl)pyridin-3-ol]: the IC50 is not above 100 nM. In turn, `CC1(C)CC(Oc2ccc(-c3ncc(-n4ccnc4)cc3O)nn2)CC(C)(C)N1` [Compound 5, 5-(1H-imidazol-1-yl)-2-{6-[(2,2,6,6-tetramethylpiperidin-4-yl)oxy]pyridazin-3-yl}pyridin-3-ol] returned an IC50 not above 100 nM. As to `CC1(C)C[C@H](Oc2ccc(-c3ncc(-n4ccnc4)cc3O)nn2)[C@H](F)C(C)(C)N1` (single isomer, unassigned) [Compound 9, 2-(6-{[(3R,4S)-3-fluoro-2,2,6,6-tetramethylpiperidin-4-yl]oxy}pyridazin-3-yl)-5-(1H-imidazol-1-yl)pyridin-3-ol or 2-(6-{[(3S,4R)-3-fluoro-2,2,6,6-tetramethylpiperidin-4-yl]oxy}pyridazin-3-yl)-5-(1H-imidazol-1-yl)pyridin-3-ol], the IC50 fell in the range of 100 to 500 nM. `C[C@@H]1CN(c2ccc(-c3ncc(-c4cc(F)c5nn(C)cc5c4)cc3O)nn2)C[C@H](C)N1` [Compound 69, 2-{6-[(3R,5S)-3,5-dimethylpiperazin-1-yl]pyridazin-3-yl}-5-(7-fluoro-2-methyl-2H-indazol-5-yl)pyridin-3-ol and 2-{6-[(3S,5R)-3,5-dimethylpiperazin-1-yl]pyridazin-3-yl}-5-(7-fluoro-2-methyl-2H-indazol-5-yl)pyridin-3-ol] came in with an IC50 not above 100 nM.

For the compound `CN[C@@H]1CCN(c2ccc(-c3ncc(-c4cnc(C)o4)cc3O)nn2)C1` [Compound 77, 2-{6-[(3R)-3-(methylamino)pyrrolidin-1-yl]pyridazin-3-yl}-5-(2-methyl-1,3-oxazol-5-yl)pyridin-3-ol], the IC50 is not above 100 nM. With `Oc1cc(-c2cn[nH]c2)cnc1-c1ccc(OC2CC3(CC3)NC3(CC3)C2)nn1` (centres unmarked) [Compound 31, 2-{6-[(4-azadispiro[2.1.2^5.3^3]decan-9-yl)oxy]pyridazin-3-yl}-5-(1H-pyrazol-4-yl)pyridin-3-ol] the figure was 100 to 500 nM; with `CC1(C)C[C@H](Oc2ccc(-c3ncc(-c4ncco4)cc3O)nn2)[C@H](F)C(C)(C)N1` (single isomer, unassigned) [Compound 12, 2-(6-{[(3R,4S)-3-fluoro-2,2,6,6-tetramethylpiperidin-4-yl]oxy}pyridazin-3-yl)-5-(1,3-oxazol-2-yl)pyridin-3-ol or 2-(6-{[(3S,4R)-3-fluoro-2,2,6,6-tetramethylpiperidin-4-yl]oxy}pyridazin-3-yl)-5-(1,3-oxazol-2-yl)pyridin-3-ol], not above 100 nM.

On to `CN(c1cnc(-c2ncc(-n3nccn3)cc2O)nn1)C1CC(C)(C)NC(C)(C)C1` [Compound 161, 2-{6-[methyl(2,2,6,6-tetramethylpiperidin-4-yl)amino]-1,2,4-triazin-3-yl}-5-(2H-1,2,3-triazol-2-yl)pyridin-3-ol], for which the IC50 was not above 100 nM. The result for `Cn1cc2cc(-c3cnc(-c4ccc(N5CCNC6(CC6)C5)nn4)c(O)c3)cc(F)c2n1` [Compound 98, 2-[6-(4,7-diazaspiro[2.5]octan-7-yl)pyridazin-3-yl]-5-(7-fluoro-2-methyl-2H-indazol-5-yl)pyridin-3-ol] reads not above 100 nM; that for “2-(6-{[(3R,4S)-3-fluoro-2,2,6,6-tetramethylpiperidin-4-yl]oxy}pyridazin-3-yl)-5-(4-methyl-1H-imidazol-1-yl)pyridin-3-ol and 2-(6-{[(3S,4R)-3-fluoro-2,2,6,6-tetramethylpiperidin-4-yl]oxy}pyridazin-3-yl)-5-(4-methyl-1H-imidazol-1-yl)pyridin-3-ol [Compound 41]”, 100 to 500 nM; that for `Cc1cn2nc(-c3cnc(-c4ccc(OC5CC(C)(C)NC(C)(C)C5)nn4)c(O)c3)cc(C)c2n1` [Compound 50, 5-(2,8-dimethylimidazo[1,2-b]pyridazin-6-yl)-2-{6-[(2,2,6,6-tetramethylpiperidin-4-yl)oxy]pyridazin-3-yl}pyridin-3-ol], not above 100 nM.
